The values that follow come from US10189796B2, “[4-(1,3,3-trimethyl-2-oxo-3,4-dihydro-1H-quinoxalin-7-yl)phenoxy]ethyloxy compound or salt thereof” (SANTEN PHARMACEUTICAL CO., LTD., priority 2015, dated 2019).

One experiment deals with Recombinant human GR (Homo sapiens (Human), UniProt P04150). Kind of experiment: GR competitive binding assay by fluorescence polarization. Conditions: 20 μM test compound solution, 10 μL/well; 2 hours; DEX positive control; read-out: GR binding rate (%). Here is the method: In order to evaluate a binding activity of the present compound to GR, a GR receptor competitor assay was carried out by a fluorescence polarization method. In the assay, a GR competitive binding assay kit (manufactured by Invitrogen, cat No. P2816) was used for the assay, and a procedure was carried out according to the protocol attached to the kit. Hereinafter, the specific method will be described.
GR screening buffer: A buffer containing 10 mM of potassium phosphate (pH 7.4), 20 mM of sodium molybdate (Na2MoO4), 0.1 mM of ethylene diamine tetraacetic acid (EDTA), 5 mM of dithiothreitol (DTT), 0.1 mM of stabilizing peptide and 2% of dimethylsulfoxide was prepared.
4×GS1 solution: Fluormone™ GS1, which is a fluorescent glucocorticoid ligand, was diluted with GR screening buffer, whereby a 4 nM solution was prepared.
4×GR solution: Recombinant human GR was diluted with GR screening buffer, whereby a 16 nM solution was prepared.
After a test compound was dissolved in dimethylsulfoxide, the resulting solution was diluted with GR screening buffer, whereby a 20 μM test compound solution was prepared. In addition, DEX was similarly dissolved, whereby a DEX solution with a […] concentration was prepared, and the solution was diluted with GR screening buffer, whereby a 2 mM DEX solution was prepared. DEX was used as positive control.
• 1) The test compound solution was added in an amount of 10 μL into each well of a 384-well plate. • 2) 4×GS1 solution and 4×GR solution were added in an amount of 5 μL into each well, respectively. • 3) GR screening buffer was added in an amount of 10 μL/well into each well in place of the test compound solution, which was made a negative control. • 4) A 2 mM of DEX was added in an amount of 10 μL/well into each well in place of the test compound solution, which was made a positive control. • 5) The plate was incubated in a dark place at room temperature for 2 hours, and fluorescence polarization of each well was measured. (Calculation Equation of GR Binding Ratio)
A GR binding ratio (%) was calculated from the following equation. GR binding ratio (%)=100×{1−(fluorescence polarization of test compound solution−average value of fluorescence polarization of positive control solution)/(average value of fluorescence polarization of negative control solution−average value of fluorescence polarization of positive control solution)}

For experiment [1], the system named is TNFα production in rat whole blood. The experiment is described as follows: TNFα production inhibitory action evaluation test (LPS stimulation ex vivo, ELISA). It is filed as cell-based. To be noted: 20 hours, 200 μM test compound solution 10 μL/well, DEX treated group = 100, read-out: TNFα production inhibitory ratio (% DEX). As to the method:
In order to evaluate an action of the present compound as a GR agonist, a TNFα production inhibitory action in rat whole blood after LPS stimulation ex vivo was investigated. For the measurement of the TNFα production amount, the ELISA method (manufactured by R&D Systems, Cat No. RTA00) was used, and a procedure was carried out according to the protocol attached thereto. Hereinafter, the specific method will be described.
LPS solution: LPS was dissolved in PBS(−) and diluted with RPMI 1640 to prepare an LPS solution with a concentration of 2 μg/mL.
After the test compound was dissolved in dimethylsulfoxide, the solution was diluted with PBS(−) to prepare 200 μM of a test compound solution. In addition, DEX was similarly dissolved to prepare 200 μM of a DEX solution, and a TNFα production inhibitory ratio of DEX was measured, and used for calculation of Efficacy (% DEX).
• 1) Blood was collected from 3 to 5 rats using an injection syringe treated with heparin from the abdominal aorta under isoflurane anesthesia. The rats confirmed death after lething the whole blood. • 2) The blood of 3 to 5 rats pooled in a 96-well round bottom culture plate was seeded at each 180 μL/well. • 3) It was cultured (37° C., 5% CO2, 95% air) for about 1 hour. • 4) The test compound solution was added each 10 μL/well, and cultured for 1 hour. • 5) LPS solution was added each 10 μL/well. • 6) The sample in which 2% dimethylsulfoxide-containing PBS(−) was added with each 10 μL/well in place of each test compound solution, and RPMI 1640 was added with each 10 μL/well in place of the LPS solution was made a negative control. • 7) The sample in which 2% dimethylsulfoxide-containing PBS(−) was added with each 10 μL/well in place of each test compound solution was made a positive control. • 8) After completion of 20 hours cultivation, the supernatant was recovered and the amount of TNFα released in the supernatant was measured by using an ELISA Kit. • 9) The TNFα production inhibitory ratio was calculated according to the following calculation formula. (Calculation of TNFα Production Inhibitory Ratio)
TNFα production inhibitory ratio (%) was calculated according to the following formula. TNFα production inhibitory ratio (%)=100×{1−(TNFα production amount of each test compound solution−average value of TNFα production amount of negative control group)/(average value of TNFα production amount of positive control group−average value of TNFα production amount of negative control group)}(%)
Further, a TNFα production inhibitory ratio (Efficacy (% DEX)) when the DEX treated group was made 100 was calculated. Efficacy (% DEX)=100×{(average value of TNFα production inhibitory ratio of each test compound solution)/(average value of TNFα production inhibitory ratio of DEX treated group)}(%)

Experiment [2] relates to ovalbumin actively sensitized allergic conjunctivitis model of rabbits. The experiment is described as follows: Allergic conjunctivitis model evaluation test. Type of experiment: in vivo, rabbit. Conditions: 1% suspension, eye drop 50 μL four times a day for 4 days plus once; 0.5 hour after challenge. As to the method:
In order to evaluate an anti-allergic action of the present compounds on allergic conjunctivitis, an inhibitory effect on hyperemia in an ovalbumin actively sensitized allergic conjunctivitis model of rabbits was investigated. Incidentally, this effect was evaluated by calculating an inhibitory ratio from the score of the base agent administered group (control group) and the score of the test compound administered group.
A base agent containing a general additive(s) was added to the test compound to prepare test compound suspensions with 1% (WN) and 3% (W/V).
By using male JW rabbits, ovalbumin (200 μg/mL/physiological saline solution) adsorbed on aluminum hydroxide gel was injected 200 μL per eye into bulbar conjunctiva of both eyes of rabbits, respectively, to perform active sensitization.
After 14 days from sensitization or later, the test compound suspension was eye-dropped four times a day for 4 days, and then, at the next day, it was eye-dropped (instillation dose: 50 μL/time) once to both eyes. Incidentally, the base agent was similarly eye-dropped to the base agent administered group (control group).
One hour after the final eye dropping of the test compound suspension, a physiological saline solution containing 0.02% (W/V) of ovalbumin was administered from rabbit ear vein at a dose of 1.5 mL per 1 kg of rabbit to induce allergic conjunctivitis.
After 0.5 hour of the challenge, the degree of hyperemia symptoms of both ocular conjunctiva of rabbits was evaluated according to the following criteria, and the average value of the total of these scores was calculated. […]

Recombinant human GR, sequence (P04150 whole entry): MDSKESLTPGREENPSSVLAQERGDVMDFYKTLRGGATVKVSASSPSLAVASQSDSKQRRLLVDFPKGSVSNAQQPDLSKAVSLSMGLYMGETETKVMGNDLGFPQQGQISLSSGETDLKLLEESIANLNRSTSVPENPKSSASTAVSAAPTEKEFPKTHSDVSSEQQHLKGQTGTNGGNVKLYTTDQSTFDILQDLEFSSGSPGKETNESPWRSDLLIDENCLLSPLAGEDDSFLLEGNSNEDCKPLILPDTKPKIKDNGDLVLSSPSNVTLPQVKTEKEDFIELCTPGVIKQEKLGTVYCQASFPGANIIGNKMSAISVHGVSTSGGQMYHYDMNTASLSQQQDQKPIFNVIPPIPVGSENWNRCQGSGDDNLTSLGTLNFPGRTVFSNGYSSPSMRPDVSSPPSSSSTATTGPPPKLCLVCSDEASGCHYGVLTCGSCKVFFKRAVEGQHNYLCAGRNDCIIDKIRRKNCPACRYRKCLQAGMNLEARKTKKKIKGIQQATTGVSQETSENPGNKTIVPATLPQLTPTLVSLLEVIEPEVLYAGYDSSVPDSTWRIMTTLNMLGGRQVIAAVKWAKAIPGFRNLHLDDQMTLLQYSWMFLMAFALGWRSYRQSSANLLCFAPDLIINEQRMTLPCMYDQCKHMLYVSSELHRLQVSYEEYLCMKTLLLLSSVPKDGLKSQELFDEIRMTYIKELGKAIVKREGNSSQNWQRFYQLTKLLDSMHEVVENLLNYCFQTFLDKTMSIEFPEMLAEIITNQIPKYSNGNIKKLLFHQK

On to `COc1cc(OC[C@H](C)OP(=O)(O)O)ccc1-c1ccc2c(c1COc1cc(F)ccc1C)N(C)C(=O)C(C)(C)N2` [Compound 14-1, (S)-8-(5-fluoro-2-methylphenoxymethyl)-7-[4-(2-phosphonohydroxypropyl)oxy-2-methoxyphenyl]-1,3,3-trimethyl-3,4-dihydro-1H-quinoxalin-2-one], for which the inhibition at 10 µM at Recombinant human GR was more than 99%. Moreover, the Emax in experiment [1] worked out at 86%. Further, the “Eye congestion inhibitory ratio (%)” value in experiment [2] is 22%.
